In patent US6555676B2, “Biologically active phosphotriester-type compounds” (Centre National de la Recherche Scientifique, priority 1992, dated 2003):
Where two headings read alike, the source gives them in different places.

Key:
HIV-1 (LAI isolate) [1] = assay: Anti-HIV-1 activity (RTase in culture supernatant) in CEM-SS cells; type: cell-based; conditions: lowest concentration reducing RTase production by at least 50%, 5 days, read-out: ED50 (the source's name)
Protocol: (§1) HIV-1 replication (LAI isolate) in CEM cells is measured by assaying the reverse transcriptase (RTase) in the culture supernatant after infection for 5 days. This activity reflects the presence of the virus released by the cells. After adsorption of the virus, the test compounds are added, at various concentrations, to the culture medium.
(§2) Antiviral activity is expressed as the lowest concentration of compound which reduces the production of RTase by at least 50% (ED50)
(§3) The compounds were tested as described in Example 5 above.
(§4) The iso-SATE pronucleotides of Examples 16A and 16B were evaluated for their inhibitory effects on the replication of HIV-1 in CEM-SS and in thymidine-kinase deficient cell lines (CEM/TD). For comparison, the parent nucleosides ddA and d4T, and the corresponding bis(SATE) phosphotriesters bis(tBuSATE)ddAMP (the compound of Example 9) and bis(tBuSATE)d4TMP, were evaluated in the same experiments.

[2] = test system: non-infected CEM-SS cells; assay: Toxic effect on non-infected cells (MTT/formazan), CEM-SS; type: cell-based, Human; conditions: 50% inhibition of formazan formation, 5 days
Protocol: (§5) The toxic effect on non-infected CEMs is assessed by a calorimetric reaction based on the capacity of living cells to reduce 3-(4,5-dimethylthiazol-2-yl)-2,5-diphenyltetrazolium bromide into formazan after incubation for 5 days in the presence of various concentrations of the compounds.

HIV-1 (LAI isolate) [3] = assay: Anti-HIV-1 activity (RTase in culture supernatant) in CEM-TK− cells; type: cell-based; conditions: for EC50: CEM-TK− cells, lowest concentration reducing RTase production by at least 50%, 5 days, read-out: ED50 (the source's name)
Protocol: as §1, §2, §3, §4

non-infected MT-4 cells = assay: Toxic effect on non-infected cells (MTT/formazan), MT-4; type: cell-based, Human; conditions: 50% inhibition of formazan formation
HIV-1 = assay: Anti-HIV-1 activity in MT-4 cells; type: cell-based, Human immunodeficiency virus; conditions: for EC50: read-out: ED50 (the source's name)
Protocol: as §1, §2, §3

[4] = test system: non-infected CEM-TK− cells; assay: Toxic effect on non-infected cells (MTT/formazan), CEM-TK−; type: cell-based, Human; conditions: 50% inhibition of formazan formation, 5 days
Protocol: as §5

[5] = type: in vitro ADME, Human
Protocol: (§6) The “ISRP on line” HPLC technique (“On-line Internal Surface Reversed-Phase Cleaning: The Direct HPLC Analysis of Crude Biological Samples”, A. Pompon, I. Lefebvre and J. L. Imbach, Biochemical Pharmacology, 43,1769-1775 (1992) was used for this study, the compound studied being incubated respectively in culture medium (RPMI/10% inactivated serum) and in a total cell extract (CEM).
(§7) Certain kinetic studies comparing the compound of Example 16A, i.e., S,S′-bis(O-pivaloyl-2-oxyethyl) O-2, 3-dideoxyadenosin-5′-yl phosphorodithiolate, also designated as iso[Bis(SATE)ddA] and its isosteric compound of Example 9, i.e., O-(2′,3′-dideoxyadenosin-5′-yl)-O,O′-bis([…]) phosphate, also designated as [Bis(SATE)ddAMP] were effected. The kinetic were studies were performed in culture medium (RPMI containing […] heat-inactivated fetal calf serum) in order to evaluate the stability of the pronucleotides in the extracellular medium used for antiviral evaluation in cell culture systems, and in total cell extracts that mimic the behavior of the compounds inside cells. The “on-line ISPR cleaning” HPLC method of Lefebvre et al., J. Med. Chem., 38, 3941-3950, 1995, were used for the studies. The products resulting from the decomposition were characterized by co-injection with authentic samples and/or by coupled HPLC/Mass Spectroscopy. The kinetics of transformation of the two isomeric pronucleotides strongly differed according to the medium. In culture medium the first iso-SATE group was cleaved in 38.5 hr whereas the first SATE group was cleaved in 165 hr. The second iso-SATE group was cleaved in 5.8 hr whereas the second SATE group was cleaved in 46 hr. In total cell extracts, the first iso-SATE group was cleaved in 5.3 hr whereas the SATE group was cleaved in 1 hr.

[6] = type: in vitro ADME
Protocol: as §6, §7

reverse transcriptase = reverse transcriptase (Human immunodeficiency virus type 1 group M subtype B, UniProt P04585); conditions: cited from earlier work
[7] = culture medium (RPMI with heat-inactivated fetal calf serum)

Structure (SMILES)	EC50 (HIV-1 (LAI isolate) [1]) [µM]	CD50 [2]	EC50 (HIV-1 (LAI isolate) [3]) [µM]	CD50 (non-infected MT-4 cells)	CD50 [4]	further results
Nc1ncnc2c1ncn2CCOCP(=O)(OCCSSCCO)OCCSSCCO [Compound 4]	3	(CD50 > 10^−4 M)	0.08	(CD50 2 · 10^−5 M).	(CD50 4 · 10^−5 M)	EC50 (HIV-1): 0.8 µM
CC(=O)SCCOP(=O)(OCCSC(C)=O)OC[C@@H]1CC[C@H](n2cc(C)c(=O)[nH]c2=O)O1 [Bis(SATE)ddTMP, O-(2′,3′-Dideoxythymidin-5′-yl)-O,O′-bis(S-acetyl-2-thioethyl)-phosphate]	–	–	–	–	(CD50 > 10^−4 M)	–
CC(C)(C)C(=O)OCCSP(=O)(OC[C@@H]1CC[C@H](n2cnc3c(N)ncnc32)O1)SCCOC(=O)C(C)(C)C [iso[Bis(SATE)ddA], S,S′-bis (Ö-pivaloyl-2-oxyethyl) O2′,3′-dideoxyadenosin-5′-yl phosphorodithiolate]	–	–	–	–	–	time in which the first (iso-)SATE group was cleaved ([5]; total cell extracts): 5.3 h; time in which the first (iso-)SATE group was cleaved [6, 7]: 38.5 h; time in which the second (iso-)SATE group was cleaved [6, 7]: 5.8 h
O=c1[nH]cnc2c1ncn2[C@H]1CC[C@@H](CO)O1 [ddI, reference compound]	–	(CD50 > 10^−4 M)	–	(CD50 > 10^−4 M)	(CD50 > 10^−4 M)	–
Cc1cn([C@H]2C[C@H](N=[N+]=[N-])[C@@H](CO)O2)c(=O)[nH]c1=O [AZT, 3′-azido-2′,3,-dideoxythymidine, reference compound]	–	(CD50 > 10^−4 M)	> 100	(CD50 > 10^−4 M)	(CD50 > 10^−4 M)	–
O=c1ccn([C@H]2CC[C@@H](COP(=O)(OCCSSCCO)OCCSSCCO)O2)c(=O)[nH]1 [Compound 2, O,O′-Bis(S-(2-hydroxyethylsufidyl)-2-thioethyl)-o-(2′,3′-dideoxyuridin-5′-yl)phosphate]	60	(CD50 10^−4 M)	8	–	(CD50 8 · 10^−5 M)	half-life in cell extract ([5]; total cell extract (CEM)): less than 5 minutes; half-life in culture medium ([6]; RPMI/10% inactivated serum): 9 h
CC(=O)SCCOP(=O)(OCCSC(C)=O)OC[C@@H]1CC[C@H](n2cnc3c(N)ncnc32)O1 [Bis(SATE)ddAMP, O-(2′,3′-Dideoxyadenosin-5′-yl)—O,O′-bis(S-acetyl-2-thioethyl)-phosphate]	–	–	–	–	(CD50 > 10^−5 M)	time in which the first (iso-)SATE group was cleaved [5]: 1 h; time in which the first (iso-)SATE group was cleaved [6]: 165 h; time in which the second (iso-)SATE group was cleaved [6]: 46 h
O=c1ccn([C@H]2CC[C@@H](COP(=O)(O)OP(=O)(O)OP(=O)(O)O)O2)c(=O)[nH]1 [2′,3′-Dideoxyuridine 5′-triphosphate]	–	–	–	–	–	inhibition of reverse transcriptase (in words) (reverse transcriptase): excellent inhibitor
Cc1cn([C@H]2C=C[C@@H](CO)O2)c(=O)[nH]c1=O [d4T, reference compound]	–	–	–	–	–	anti-HIV-1 activity (in words, FIG. 10) (HIV-1 (LAI isolate) [3]; thymidine-kinase deficient CEM cells): weakly active
Cc1cn([C@H]2C[C@H](N=[N+]=[N-])[C@@H](COP(=O)(OCCSSCCO)OCCSSCCO)O2)c(=O)[nH]c1=O [Compound 3, O,O′-Bis(S-(2-hydroxyethylsufidyl)-2-thioethyl)-O-(3′azido-3′-deoxythymidin-5′-yl)phosphate]	0.0007	(CD50 8 · 10^−5 M)	7	(CD50 8 · 10^−5 M)	(CD50 8 · 10^−5 M)	EC50 (HIV-1): 0.001 µM
Nc1ncnc2c1ncn2[C@H]1CC[C@@H](CO)O1 [ddA, reference compound]	–	(CD50 > 10^−4 M)	–	(CD50 > 10^−4 M)	(CD50 > 10^−4 M)	EC50 (HIV-1): 10 µM
CC(=O)SCCOP(=O)(OCCSC(C)=O)OC[C@@H]1CC[C@H](n2ccc(=O)[nH]c2=O)O1 [Compound 1, O-(2′,3′-dideoxyuridin-5′-yl)-O,O′-bis(S-acetyl-2-thioethyl)phosphate]	5	(CD50 9 · 10^−5 M)	4	(CD50 9 · 10^−5 M)	(CD50 7 · 10^−5 M)	ED50 (HIV-1): 2 · 10^−6 M
CC(=O)SCCOP(=O)(OCCSC(C)=O)OC[C@@H]1CC[C@H](n2cnc3c(=O)[nH]cnc32)O1 [Bis(SATE)ddIMP, O-(2′,3″ -Dideoxyinosin-5′-yl)-O,O′-bis(S-acetyl-2-thioethyl)-phosphate]	–	(CD50 > 10^−4 M)	–	(CD50 > 10^−4 M)	(CD50 > 10^−4 M)	–
